Laboratory results reported in patent US20190119348A1, “PARATHYROID HORMONE RECEPTOR 1 ANTAGONIST AND INVERSE AGONIST POLYPEPTIDES AND METHODS OF THEIR USE” (The General Hospital Corporation, priority 2016, published 2019).
Where a SMILES comes first, the peptide text is derived from it. [ ]: non-standard residue; d: D form.

What was measured:
PTHR1 = biological target: T1, PTHR1 (Homo sapiens, UniProt Q03431); assay: Antagonism of PTH(1-34)-induced cAMP response (GloSensor) in GP-2.3 cells; format: cell-based; settings: inhibition of PTH(1-34)-induced maximum response, read-out: corresponding nanomolar value of pIC50 (Table 4) (converted)
T1 construct: expressed in transfected cells; host or cells: GP-2.3 (HEK-293 stably transfected with hPTHR1 and GloSensor)
T1 sequence (Q03431 27-593): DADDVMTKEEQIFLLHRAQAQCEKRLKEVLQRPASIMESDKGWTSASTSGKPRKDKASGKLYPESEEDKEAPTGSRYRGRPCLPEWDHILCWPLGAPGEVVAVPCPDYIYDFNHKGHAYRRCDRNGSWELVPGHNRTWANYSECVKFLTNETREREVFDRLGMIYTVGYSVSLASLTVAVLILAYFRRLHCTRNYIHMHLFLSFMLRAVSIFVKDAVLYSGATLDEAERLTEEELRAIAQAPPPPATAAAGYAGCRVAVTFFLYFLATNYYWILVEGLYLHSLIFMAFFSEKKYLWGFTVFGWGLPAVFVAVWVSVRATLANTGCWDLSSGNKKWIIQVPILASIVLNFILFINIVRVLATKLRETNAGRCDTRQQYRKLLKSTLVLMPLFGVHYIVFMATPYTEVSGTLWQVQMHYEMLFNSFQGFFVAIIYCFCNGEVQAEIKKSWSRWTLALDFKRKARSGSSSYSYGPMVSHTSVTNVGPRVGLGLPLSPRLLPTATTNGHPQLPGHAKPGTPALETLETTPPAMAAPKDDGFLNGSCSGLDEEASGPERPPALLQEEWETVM
Experimental: cAMP signaling was assessed in the HEK293-derived or SaOS2-derived cell lines stably expressing the luciferase-based GloSensor™ cAMP reporter (Hattersley et al., Paper presented at: Novel Signaling Mechanisms and Bone Cell Biology 2014; Binkowski et al., Methods in molecular biology. 756:263-271). HEK-293 cells were further transfected to stably express the hPTHR1, hPTHR1-H223R, or hPTHR1-T410P. The cells were seeded into 96-well white plates and were assayed 24 to 48 hours post-confluency. Assays were performed at room temperature in CO2-independent culture media (Life Technologies, Corp., Carlsbad, Calif.) containing 0.1% BSA (CIDB). The cells were pre-loaded with luciferin (0.5 mM in CIDB) for 15 minutes, then PTH peptides were added at varying concentrations. cAMP-dependent luminescence was measured at two-minute intervals using a PerkinElmer Envision plate reader. The time at which maximum luminescence (cps) observed with agonist alone, typically at 10-20 minutes after agonist addition, was used to obtain data from wells containing antagonist with or without agonist, to thus generate antagonist ligand dose-response curves. The resulting cps values were then plotted against ligand concentration using GraphPad Prism 7.0 software and a four-parameter logistics curve fitting equation, which yielded parameters of inhibitory potency (pIC50).
Pharmacological properties of the ligands were assessed in cells expressing the PTHR1 and the GloSensor™ cAMP reporter. The assays used GP-2.3 cells, derived from HEK293 cells by stable transfection with the hPTHR1 and GloSensor™, as well as SGS-72 cells, which are derived from the human osteosarcoma cell line, Saos-2, in which is endogenously expressed the hPTHR1, by stable transfection with GloSensor™. Binding of representative polypeptides to the PTHR1 was assessed in GP-2.3 cells by radioligand competition methods (FIGS. 1A and 1B, Table 3).
[…] concentration of antagonist that inhibited the maximum response to PTH(1-34)-induced in the absence of antagonist (at ˜40 minutes) is reported in units of -log M (pIC50), and the corresponding nanomolar value is shown below each pIC50 value. Data are means of the number of experiments indicated (n). The PTH(1-34)-induced maximum luminescence was ˜80,000 cps and the basal was ˜1,000 cps. TMR indicates Lys13 modified at epsilon amino function with TMR, P vs. inhibition by dW12,Y34-bPTH(7-34).

wild-type PTHR [1] = biological target: T2, wild-type PTHR (Mus musculus, UniProt P41593); assay: Mouse transient model of hyperparathyroidism (PEG-PTH(1-35)-induced hypercalcemia), blood Ca2+; format: in vivo; settings: 10-week old female CD1 mice; PEG-PTH(1-35)-1925 50 nmol/kg i.v. at −24 h; peptide 500 nmol/kg at 0 h; P<0.05 vs vehicle at 2 h
T2 construct: Wild-type mice were injected with a PTH agonist analog; from tissue; host or cells: whole animal, wild-type mice (C57BL/6J per methods)
T2 sequence (P41593 27-591): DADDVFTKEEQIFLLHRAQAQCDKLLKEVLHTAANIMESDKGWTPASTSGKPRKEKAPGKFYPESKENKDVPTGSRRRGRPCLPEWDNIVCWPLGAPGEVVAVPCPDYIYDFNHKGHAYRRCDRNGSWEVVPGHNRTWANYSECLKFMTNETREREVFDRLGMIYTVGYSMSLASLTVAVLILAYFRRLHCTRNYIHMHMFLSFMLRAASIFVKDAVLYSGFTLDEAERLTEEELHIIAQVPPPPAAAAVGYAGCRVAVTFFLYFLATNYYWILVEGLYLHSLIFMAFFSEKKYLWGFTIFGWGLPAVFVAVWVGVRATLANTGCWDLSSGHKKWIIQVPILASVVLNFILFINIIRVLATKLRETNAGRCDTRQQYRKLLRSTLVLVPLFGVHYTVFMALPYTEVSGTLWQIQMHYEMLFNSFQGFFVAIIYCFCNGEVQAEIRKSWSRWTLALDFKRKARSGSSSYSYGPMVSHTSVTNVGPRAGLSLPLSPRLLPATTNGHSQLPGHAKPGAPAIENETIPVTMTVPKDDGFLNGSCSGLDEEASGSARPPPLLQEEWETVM
Experimental: (§1) Mice were injected IV via the tail vein or subcutaneously with ligands in vehicle (0.05% Tween80; 10 mM citrate; 150 mM NaCl; pH 5.0) to give the intended final ligand dose (e.g. 50 nmol/kg body weight). At times immediately before (t=0) and after injection, tail vein blood was collected and analyzed for blood ionized calcium (Ca^2+) measured with a RAPIDLAB 348 analyzer (SIEMENS Healthcare Diagnostic, United Kingdom).
To study antagonism at the wild-type PTHR under conditions of excess PTH, as occurs in humans with hyperparathyroidism, we developed a mouse non-genetic, transient model of hyperparathyroidism. Wild-type mice were injected with a PTH agonist analog, PEG-PTH(1-35), which induces hypercalcemia lasting between 24 and 72 hours after a single s.c. injection (see Guo et al., Journal of Bone and Mineral Research, 32:86-98, 2017). Antagonists were injected after 24 hours following the injection of PEG-PTH(1-35) and effects on blood Ca^2+ levels were measured. The results are illustrated in FIGS. 12A and 12B.

wild-type PTHR [2] = biological target: T2, wild-type PTHR; assay: Mouse model of hypercalcemia of malignancy (co-injection with PTHrP(1-36)), blood Ca2+; format: in vivo; settings: 10-week old female CD1 mice; i.v. co-injection with PTHrP(1-36)-1880 10 nmol/kg; peptide 500 nmol/kg
Experimental: as §1
To study antagonism at the wild-type PTHR under conditions of excess PTHrP, as occurs in humans with hypercalcemia of malignancy, we co-injected wild-type mice with PTHrP(1-36) and a test antagonist and measured effects on blood Ca^2+ levels. The results are illustrated in FIG. 13.

IC50 (PTHR1): 101 nM
effect on blood Ca^2+ (FIG. 12A) (wild-type PTHR [1]): reduced blood Ca^2+
SMILES: CC[C@H](C)[C@H](N)C(=O)N[C@@H](CCC(N)=O)C(=O)N[C@@H](CC(C)C)C(=O)N[C@@H](CCSC)C(=O)N[C@@H](Cc1c[nH]cn1)C(=O)N[C@@H](CCC(N)=O)C(=O)N[C@@H](CCCNC(=N)N)C(=O)N[C@H](Cc1c[nH]c2ccccc12)C(=O)N[C@@H](CCCCN)C(=O)N[C@@H](Cc1c[nH]c2ccccc12)C(=O)N[C@H](C(=O)N[C@@H](CCC(N)=O)C(=O)N[C@@H](CC(=O)O)C(=O)N[C@@H](C)C(=O)N[C@@H](CCCNC(=N)N)C(=O)N[C@@H](CCCNC(=N)N)C(=O)N[C@@H](CCCNC(=N)N)C(=O)N[C@@H](C)C(=O)N[C@@H](Cc1c[nH]c2ccccc12)C(=O)N[C@@H](CC(C)C)C(=O)N[C@@H](Cc1c[nH]cn1)C(=O)N[C@@H](CCCCN)C(=O)N[C@@H](CC(C)C)C(=O)N[C@H](C(=O)N[C@@H](C)C(=O)N[C@@H](CCC(=O)O)C(=O)N[C@H](C(=O)N[C@@H](Cc1c[nH]cn1)C(=O)N[C@H](C(=O)N[C@@H](C)C(=O)N[C@@H](CCC(=O)O)C(=O)N[C@H](C(N)=O)[C@@H](C)CC)[C@@H](C)O)[C@@H](C)CC)[C@@H](C)CC)[C@@H](C)CC [compound 1949, dW12, W23-LA-PTH(5-36)] (H-IQLMHQR[dW]KWIQDARRRAWLHKLIAEIHTAEI-NH2; N-terminus assumed)
effect on blood Ca^2+ levels (FIG. 13) (wild-type PTHR [2]): significant reduction of blood Ca^2+ levels
